In patent US9023865B2, “Compounds that are ERK inhibitors” (Merck Sharp & Dohme Corp., priority 2011, dated 2015):

Molecular target: Active Human ERK2 (hERK2) (Homo sapiens (Human), UniProt P28482)
Assay: Active Human ERK2 (hERK2) Activity Assay (IMAP-FP)
Type: biochemical
Conditions: phosphorylated active hERK2, 30 μM ATP; average; read-out: ERK 2 Human average IC50
In short: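 Reaction contains 0.5 nM activated hERK2, 900 nM unlabeled plus 80 nM labeled peptide and 30 μM ATP, run 60 min. Quenched with IMAP binding beads in buffer with 24 mM NaCl; fluorescence polarization read after 60 min binding equilibration.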

Chain of Active Human ERK2 (hERK2) (P28482 whole entry): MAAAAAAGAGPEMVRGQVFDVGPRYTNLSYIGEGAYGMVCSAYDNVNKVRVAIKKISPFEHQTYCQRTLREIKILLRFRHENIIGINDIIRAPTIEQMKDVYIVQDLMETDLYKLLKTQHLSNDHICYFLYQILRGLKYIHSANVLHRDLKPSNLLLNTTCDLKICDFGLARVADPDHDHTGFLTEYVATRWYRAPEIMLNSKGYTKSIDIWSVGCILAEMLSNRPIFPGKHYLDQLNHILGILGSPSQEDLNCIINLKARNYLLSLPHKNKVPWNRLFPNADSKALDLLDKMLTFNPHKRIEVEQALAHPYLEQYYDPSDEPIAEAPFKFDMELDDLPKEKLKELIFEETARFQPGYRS

| IC50 [nM] | Structure (SMILES) |
| --- | --- |
| 1.53 | Cc1cc(-c2n[nH]c3cc(NC(=O)NC(C)c4ccno4)ncc23)ccn1 (stereo not shown) [Example 497] |
| 8.06 | Cc1cc(-c2n[nH]c3cc(NC(=O)NCC(O)C(F)(F)F)ncc23)ccn1 (stereo not shown) [Example 195] |
| 3.2 | C[C@@H](NC(=O)Nc1cc2[nH]nc(C(=O)NCC3CCCC(O)C3)c2cn1)c1ccccc1 (stereo partly shown) [Example 132] |
| 0.662 | Cc1cc(-c2n[nH]c3cc(NC(=O)N[C@H]4CN(C)C[C@@H]4c4ccccc4F)ncc23)ccn1 [Example 183] |
| 5.88 | Cc1cc(-c2n[nH]c3cc(NC(=O)NC(C)CC4CCCO4)ncc23)ccn1 (stereo not shown) [Example 239] |
| 6.01 | Cc1cc(-c2n[nH]c3cc(NC(=O)NCc4ccc(Cl)cn4)ncc23)ccn1 [Example 478] |
| 14.7 | C[C@@H](NC(=O)Nc1cc2[nH]nc(C(=O)NCC34CC5CC(C3)C(O)C(C5)C4)c2cn1)c1ccccc1 (stereo partly shown) [Example 127] |
| 3.66 | Cc1cc(-c2n[nH]c3cc(NC(=O)NCc4cnccc4C(F)(F)F)ncc23)ccn1 [Example 510] |
| 160 | COC(=O)[C@@H](NC(=O)Nc1cc2[nH]nc(-c3ccnc(C)c3)c2cn1)C(C)C [Example 460] |
| 2.06 | Cc1cc(-c2n[nH]c3cc(NC(=O)NCCC(=O)Nc4ccccc4Br)ncc23)ccn1 [Example 399] |
| 1.07 | COC(=O)C1CC1c1n[nH]c2cc(NC(=O)N[C@H](C)c3ccccc3)ncc12 (stereo partly shown) [Example 644] |
| 1.06 | C[C@@H](NC(=O)Nc1cc2[nH]nc(-c3ccc(C#N)cc3)c2cn1)c1ccccc1 [Example 66, 1-[3-(4-cyanophenyl)-1H-pyrazolo[4,3-c]pyridin-6-yl]-3-[(1R)-1-phenylethyl]urea] |
| 8.33 | C[C@@H](NC(=O)Nc1cc2[nH]nc(C(=O)NCCC3(O)CCCC3)c2cn1)c1ccccc1 [Example 126] |
| 0.382 | Cc1cc(-c2n[nH]c3cc(NC(=O)N[C@@H]4CCCOc5ccccc54)ncc23)ccn1 [Example 285] |
| 570 | C[C@@H](NC(=O)Nc1cc2[nH]nc(C(=O)N(C)C)c2cn1)c1ccccc1 [Example 139] |
| 8.62 | Cc1cc(-c2n[nH]c3cc(NC(=O)NC4CCCOC4)ncc23)ccn1 (stereo not shown) [Example 468] |
| 0.621 | C[C@@H](NC(=O)Nc1cc2[nH]nc(-c3ccnc(F)c3)c2cn1)c1ccc(F)cc1 [Example 645] |
| 2.16 | COCC(NC(=O)Nc1cc2[nH]nc(-c3ccnc(C)c3)c2cn1)c1ccccn1 (stereo not shown) [Example 348] |
| 24.2 | COCC(NC(=O)Nc1cc2[nH]nc(-c3ccnc(C)c3)c2cn1)c1ccc(C(F)(F)F)cn1 (stereo not shown) [Example 240] |
| 3.81 | Cc1cc(-c2n[nH]c3cc(NC(=O)NCC(F)(F)CO)ncc23)ccn1 [Example 190] |
| 5.93 | Cc1cc(-c2n[nH]c3cc(NC(=O)NC4CC(C)(C)Oc5ccccc54)ncc23)ccn1 (stereo not shown) [Example 271] |
| 0.432 | Cc1cc(-c2n[nH]c3cc(NC(=O)N[C@H](C)c4ccc(F)c(Cl)c4)ncc23)ccn1 [Example 69, 1-[(1R)-1-(3-chloro-4-fluorophenyl)ethyl]-3-[3-(2-methylpyridin-4-yl)-1H-pyrazolo[4,3-c]pyridin-6-yl]urea] |
| 96.8 | Cc1cc(-c2n[nH]c3cc(NC(=O)N[C@H]4CN(C)C[C@@H]4C4CCOCC4)ncc23)ccn1 [Example 210] |

| IC50 [nM] | Structure (SMILES) |
| --- | --- |
| 2.73 | CCCNC(=O)Nc1cc2[nH]nc(-c3ccnc(C)c3)c2cn1 [Example 241] |
| 29.1 | Cc1cc(-c2n[nH]c3cc(NC(=O)N[C@@H](CN)c4ccccc4)ncc23)ccn1 [Example 331] |
| 1.06 | Cc1cc(-c2n[nH]c3cc(NC(=O)N[C@H](C)c4cc(Cl)ccn4)ncc23)ccn1 [Example 229] |
| 41.6 | CC[C@H](NC(=O)Nc1cc2[nH]nc(-c3ccnc(C)c3)c2cn1)c1ccccn1 [Example 217] |
| 2.9 | COCCNC(=O)Nc1cc2[nH]nc(-c3ccnc(C)c3)c2cn1 [Example 40, 1-(2-methoxyethyl)-3-[3-(2-methylpyridin-4-yl)-1H-pyrazolo[4,3-c]pyridin-6-yl]urea] |
| 23.6 | Cc1cc(-c2n[nH]c3cc(NC(=O)NC4CCOC(C)(C)C4)ncc23)ccn1 (stereo not shown) [Example 196] |
| 22.8 | CC(O)c1n[nH]c2cc(NC(=O)N[C@H](C)c3ccccc3)ncc12 (stereo partly shown) [Example 618] |
| 1.35 | Cc1cc(-c2n[nH]c3cc(NC(=O)NC4CCN(S(C)(=O)=O)c5ccccc54)ncc23)ccn1 (stereo not shown) [Example 277] |
| 193 | C[C@@H](NC(=O)Nc1cc2[nH]nc(C(C)(F)F)c2cn1)c1ccc(F)cc1 [Example 665] |
| 10.8 | Cc1cc(-c2n[nH]c3cc(NC(=O)N[C@@H](CN(C)C)c4ccccc4)ncc23)ccn1 [Example 481] |
| 0.986 | CN1CC[C@@H](CNC(=O)Nc2cc3[nH]nc(-c4ccc(F)cc4)c3cn2)C1 [Example 321] |
| 7.71 | C[C@@H](NC(=O)Nc1cc2[nH]nc(C3CC3(F)F)c2cn1)c1ccccc1 (stereo partly shown) [Example 164] |
| 25.8 | CC(CNC(=O)Nc1cc2[nH]nc(-c3ccc(F)cc3)c2cn1)N(C)C (stereo not shown) [Example 227] |
| 0.995 | O=C(NCc1ccno1)Nc1cc2[nH]nc(-c3ccc(F)cc3)c2cn1 [Example 222] |
| 0.159 | Cc1cc(-c2n[nH]c3cc(NC(=O)NCc4cccc(S(C)(=O)=O)c4)ncc23)ccn1 [Example 619] |
| 0.582 | Cc1cc(-c2n[nH]c3cc(NC(=O)NC(C)c4ccc(S(C)(=O)=O)cc4)ncc23)ccn1 (stereo not shown) [Example 376] |
| 2.61 | Cc1cc(-c2n[nH]c3cc(NC(=O)NCc4nc(C)cs4)ncc23)ccn1 [Example 477] |
| 0.858 | Cc1cc(-c2n[nH]c3cc(NC(=O)N[C@H](C)c4ccc(F)cn4)ncc23)ccn1 [Example 503] |
| 0.699 | Cc1cc(-c2n[nH]c3cc(NC(=O)N[C@H](C)c4ncccc4F)ncc23)ccn1 [Example 232] |
| 5.06 | Cc1cc(-c2n[nH]c3cc(NC(=O)NC4CCCC(Oc5cccc(F)c5)C4)ncc23)ccn1 (stereo not shown) [Example 656] |
| 0.34 | Cc1cc(-c2n[nH]c3cc(NC(=O)NCc4cccc(NS(C)(=O)=O)c4)ncc23)ccn1 [Example 366] |
| 1.14 | Cc1cc(-c2n[nH]c3c(F)c(NC(=O)NCc4ccccc4)ncc23)ccn1 [Example 536] |
| 0.97 | CNC(=O)[C@H]1CC1c1n[nH]c2cc(NC(=O)N[C@H](COC)c3ccccc3)ncc12 (stereo partly shown) [Example 171] |

| IC50 [nM] | Structure (SMILES) |
| --- | --- |
| 0.411 | Cc1cc(-c2n[nH]c3cc(NC(=O)NCc4ccc(F)c(Cl)c4)ncc23)ccn1 [Example 56, 1-(3-chloro-4-fluorobenzyl)-3-[3-(2-methylpyridin-4-yl)-1H-pyrazolo[4,3-c]pyridin-6-yl]urea] |
| 39.7 | CCCCNC(=O)Nc1cc2[nH]nc(C3CCC3)c2cn1 [Example 143, 1-butyl-3-(3-cyclobutyl-1H-pyrazolo[4,3-c]pyridin-6-yl)urea] |
| 0.428 | Cc1cc(-c2n[nH]c3cc(NC(=O)Nc4noc5cccnc45)ncc23)ccn1 [Example 493] |
| 24.3 | CN(C)CCNC(=O)Nc1cc2[nH]nc(-c3ccc(F)cc3)c2cn1 [Example 224] |
| 5.8 | [2H]C([2H])([2H])OC[C@@H](NC(=O)Nc1cc2[nH]nc(C3CC3)c2cn1)c1ccccc1 [Example 161] |
| 0.789 | Cc1cc(-c2n[nH]c3cc(NC(=O)NC[C@@H](C)c4ccccc4)ncc23)ccn1 [Example 622] |
| 0.335 | COC[C@@H](NC(=O)Nc1cc2[nH]nc(-c3ccc(C#N)cc3)c2cn1)c1ccccc1 [Example 607] |
| 0.29 | Cc1cc(-c2n[nH]c3cc(NC(=O)N[C@H](C)c4ccccc4)ncc23)cc(C)n1 [Example 31, 1-[3-(2,6-dimethylpyridin-4-yl)-1H-pyrazolo[4,3-c]pyridin-6-yl]-3-[(1R)-1-phenylethyl]urea] |
| 0.665 | C[C@@H](NC(=O)Nc1cc2[nH]nc(-c3ccn4ncnc4c3)c2cn1)c1ccccc1 [Example 294] |
| 29.8 | Cc1cc(-c2n[nH]c3cc(NC(=O)NC4(c5ccc(Cl)cc5)CC4)ncc23)ccn1 [Example 85, 1-[1-(4-chlorophenyl)cyclopropyl]-3-[3-(2-methylpyridin-4-yl)-1H-pyrazolo[4,3-c]pyridin-6-yl]urea] |
| 4.51 | Cc1cc(-c2n[nH]c3cc(NC(=O)N[C@@H]4[C@H](CO)[C@H]5CC[C@@H]4O5)ncc23)ccn1 [Example 367] |
| 0.745 | Cc1cc(-c2n[nH]c3cc(NC(=O)NCc4cscn4)ncc23)ccn1 [Example 432] |
| 155 | Cc1cccc(CNC(=O)Nc2cc3[nH]nc(C(F)F)c3cn2)n1 [Example 695] |
| 42.1 | CN1C[C@H](NC(=O)Nc2cc3[nH]nc(-c4ccc(F)cc4)c3cn2)[C@@H](c2ccccc2)C1 [Example 213] |
| 765 | C[C@@H](NC(=O)Nc1cc2[nH]nc(C(F)F)c2cn1)c1ccccn1 [Example 678] |
| 0.184 | COC[C@@H](NC(=O)Nc1ncc2c(-c3ccncc3)n[nH]c2c1F)c1ccccc1 [Example 547] |
| 3.15 | CCC(NC(=O)Nc1cc2[nH]nc(-c3ccnc(C)c3)c2cn1)c1ccc(Cl)cc1 (stereo not shown) [Example 344] |
| 1.56 | Cc1cc(-c2n[nH]c3cc(NC(=O)NC(CCN(C)C)c4ccccn4)ncc23)ccn1 (stereo not shown) [Example 353] |
| 0.958 | Cc1cc(-c2n[nH]c3cc(NC(=O)NC4CNc5ccccc5C4)ncc23)ccn1 (stereo not shown) [Example 501] |
| 14.2 | Cc1cc(-c2n[nH]c3cc(NC(=O)N[C@@H]4CN[C@H](c5ccccc5)C4)ncc23)ccn1 [Example 405] |
| 3.73 | Cc1cc(-c2n[nH]c3cc(NC(=O)N[C@@H]4CCc5ccc(F)cc54)ncc23)ccn1 [Example 270] |
| 1.45 | Cc1cc(-c2n[nH]c3cc(NC(=O)NCC4CC(C)(C)OC(C)(C)C4)ncc23)ccn1 [Example 370] |
| 2.39 | Cc1cc(-c2n[nH]c3cc(NC(=O)NC(C)c4ccccc4OC(F)(F)F)ncc23)ccn1 (stereo not shown) [Example 524] |

Same assay, conditions: read-out: AERK2 IC50 (Active human ERK2 Activity Assay)

| IC50 [nM] | Structure (SMILES) |
| --- | --- |
| 0.2 to 1.7 | C[C@@H](NC(=O)Nc1cc2[nH]nc(-c3ccc(C#N)cc3)c2cn1)c1ccccc1 [Example 66, 1-[3-(4-cyanophenyl)-1H-pyrazolo[4,3-c]pyridin-6-yl]-3-[(1R)-1-phenylethyl]urea] |
| 0.2 to 1.7 | Cc1cc(-c2n[nH]c3cc(NC(=O)N[C@H](C)c4ccc(F)c(Cl)c4)ncc23)ccn1 [Example 69, 1-[(1R)-1-(3-chloro-4-fluorophenyl)ethyl]-3-[3-(2-methylpyridin-4-yl)-1H-pyrazolo[4,3-c]pyridin-6-yl]urea] |
| 0.2 to 1.7 | Cc1cc(-c2n[nH]c3cc(NC(=O)NCc4ccc(F)c(Cl)c4)ncc23)ccn1 [Example 56, 1-(3-chloro-4-fluorobenzyl)-3-[3-(2-methylpyridin-4-yl)-1H-pyrazolo[4,3-c]pyridin-6-yl]urea] |
| 0.2 to 1.7 | Cc1cc(-c2n[nH]c3cc(NC(=O)N[C@H](C)c4ccccc4)ncc23)cc(C)n1 [Example 31, 1-[3-(2,6-dimethylpyridin-4-yl)-1H-pyrazolo[4,3-c]pyridin-6-yl]-3-[(1R)-1-phenylethyl]urea] |
